Reference: ChEMBL document CHEMBL1157862, “Synthesis and pharmacological evaluation of novel fused thiophene derivatives as 5-HT2A receptor antagonists: molecular modeling study” (Eur J Med Chem, 2010)

Biological target: 5-hydroxytryptamine receptor 2A (Rattus norvegicus) (UniProt P14842)
Assay: Antagonist activity at 5HT2A receptor in Sprague-Dawley rat assessed as inhibition of 5HT-induced pulmonary arterial pressure at 100 uM relative to 5HT
Format: functional

5-hydroxytryptamine receptor 2A (Rattus norvegicus), sequence (P14842 whole entry): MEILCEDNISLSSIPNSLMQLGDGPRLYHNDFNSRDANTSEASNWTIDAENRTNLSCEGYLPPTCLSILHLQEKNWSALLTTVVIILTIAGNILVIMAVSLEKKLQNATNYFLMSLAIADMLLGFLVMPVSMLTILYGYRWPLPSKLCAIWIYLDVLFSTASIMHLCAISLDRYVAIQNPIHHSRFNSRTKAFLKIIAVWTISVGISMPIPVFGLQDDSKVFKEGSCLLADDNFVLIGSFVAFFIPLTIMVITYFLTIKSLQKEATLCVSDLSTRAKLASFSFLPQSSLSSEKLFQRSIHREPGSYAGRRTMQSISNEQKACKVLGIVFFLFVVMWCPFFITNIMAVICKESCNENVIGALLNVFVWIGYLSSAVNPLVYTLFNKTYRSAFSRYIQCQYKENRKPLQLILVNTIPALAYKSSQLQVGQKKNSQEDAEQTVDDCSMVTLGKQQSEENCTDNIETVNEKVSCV

SMILES	inhibition [%]
CCOC(=O)c1c(NC(=O)CN2CCN(c3ccccc3OCC)CC2)sc2c1CCN(C)C2	65
CCOC(=O)c1c(NC(=O)CN2CCN(c3ccccc3OC)CC2)sc2c1CCN(C)C2	88
O=c1[nH]c2sc3c(c2c(=O)n1CCN1CCN(c2ccccc2)CC1)CCC3	86
CN1CCc2c(sc3[nH]c(=O)n(CCN4CCN(c5ccccc5)CC4)c(=O)c23)C1	60
COc1ccccc1N1CCN(CCn2c(=O)[nH]c3sc4c(c3c2=O)CCN(C)C4)CC1	65
CN1CCc2c(sc3[nH]c(=O)n(CCN4CCN(c5ccc(F)cc5)CC4)c(=O)c23)C1	63
CCOC(=O)c1c(NC(=O)CN2CCN(c3ccccc3)CC2)sc2c1CCN(C)C2	62
